Patent publication US9475766B2, “Substituted aromatic sulfur compounds and methods of their use” (Cephalon, Inc., priority 2011, dated 2016)

Legend:
Assay type in all cases: cell-based
[1] = test system: A2780 ovarian cancer cell line; experiment: Cell survival and adhesion assay (luciferase), A2780; settings: 5 hours, A2780 cells overlayed onto human mesothelial cell monolayers, read-out: relative reduction in Luciferase activity, A2780 10 μM
Method: (§1) SU86 is a pancreatic cancer cell line. HT29 is a colon cancer cell line. BxPC3 is a pancreatic cell line. A2780 is an ovarian cancer cell line.
(§2) BxPc-3 and Su.86.86 pancreatic and HT-29 colon and A2780 ovarian cancer cell lines were purchased from ATCC and cultured in DMEM supplemented with 10% fetal bovine serum, glutamine, penicillin, and streptomycin. All cells were cultured at 37° C. in a humidified incubator in a 5% CO2 atmosphere. The cancer cell lines were transduced with a retrovirus containing pLuc-puro, a constitutive luciferase reporter and selected in […] media. Transient transfection of a full-length human c-FLIP construct in the vector pcDNA3 was performed as previously described. Scaife et al. Cancer Research 2002, 62: 6870-78.
(§3) Pancreatic cancer cell cultures (BxPc-3 and Su.86.86) and colon cancer (HT-29) and ovarian cancer (A2780) cells that were stably transfected with a firefly luciferase construct were transiently suspended with trypsin-PBS. 10^5 cells were overlayed onto confluent monolayers of human mesothelial cells in 96-well plates while simultaneously adding various concentrations of compounds of the invention or DMSO for 5 hours. The non-adherent cells were carefully washed away from the wells twice with 100 μl/well of blocking buffer (1% BSA in PBS) and twice again with ice-cold PBS. Adherent and surviving cells were detected by luciferase activity in a luminometer as follows. The cells were lysed in 0.1% TritonX-100, 25 mM Gly-Gly (7.8), MgSO4, 4 mM EGTA, 1 mM DTT. The total protein concentration was normalized with lysis buffer. 50 μl of cell lysate was added per well of a 96-well microtiter plate. 50 μl of luciferin substrate (Promega) was added per well and then the light output determined in a luminometer.

[2] = test system: BxPC3 pancreatic cell line; experiment: Cell survival and adhesion assay (luciferase), BxPC3; settings: BXPC-3, 5 hours, BxPC3 cells overlayed onto human mesothelial cell monolayers, read-out: relative reduction in Luciferase activity, BxPC3 10 μM
Method: as §1, §2, §3

[3] = test system: SU86 pancreatic cancer cell line (Su.86.86); experiment: Cell survival and adhesion assay (luciferase), SU86; settings: 5 hours, SU86 cells overlayed onto human mesothelial cell monolayers, read-out: relative reduction in Luciferase activity, SU86 10 μM
Method: as §1, §2, §3

Row | SMILES | inhibition at 10 µM [1] [%] | inhibition at 10 µM [2] [%] | inhibition at 10 µM [3] [%]
1 | N#C/C=C/S(=O)(=O)c1ccc(C2(C(=O)NC3CCCCC3)CC2)cc1 [Example 68, 1-[4-((E)-2-Cyano-ethenesulfonyl)-phenyl]-cyclopropanecarboxylic acid cyclohexylamide] | > 85 | 50 to 85 | –
2 | CC(C)(C(=O)NCc1ccc(F)cc1)c1ccc(S(=O)(=O)/C=C/C#N)cc1 [Example 18, 2-[4-((E)-2-Cyano-ethenesulfonyl)-phenyl]-N-(4-fluoro-benzyl)-isobutyramide] | > 85 | 50 to 85 | 50 to 85
3 | N#C/C=C/S(=O)(=O)c1ccc(C2(C(=O)Nc3ccccc3)CCOCC2)cc1 [Example 84, 4-[4-((E)-2-Cyano-ethenesulfonyl)-phenyl]-tetrahydro-pyran-4-carboxylic acid phenylamide] | 10 to 50 | 10 to 50 | –
4 | CC(C)(C(=O)NCc1ccc(F)cc1)c1cccc(S(=O)(=O)/C=C/C#N)c1 [Example 37, 2-[3-((E)-2-Cyano-ethenesulfonyl)-phenyl]-N-(4-fluoro-benzyl)-isobutyramide] | – | 50 to 85 | –
5 | N#C/C=C/S(=O)(=O)c1ccc(C2(C(=O)Nc3ccccc3)CCC2)cc1 [Example 75, 1-[4-((E)-2-Cyano-ethenesulfonyl)-phenyl]-cyclobutanecarboxylic acid phenylamide] | 50 to 85 | > 85 | –
6 | N#C/C=C/S(=O)(=O)c1ccc(C2(C(=O)NCc3ccc(F)cc3)CC2)cc1 [Example 67, 1-[4-((E)-2-Cyano-ethenesulfonyl)-phenyl]-cyclopropanecarboxylic acid 4-fluoro-benzylamide] | > 85 | 50 to 85 | –
7 | N#C/C=C/S(=O)(=O)c1ccc(C2(C(=O)O)CCC2)cc1 [Example 74, 1-[4-((E)-2-Cyano-ethenesulfonyl)-phenyl]-cyclobutanecarboxylic acid] | < 10 | < 10 | –
8 | N#C/C=C/S(=O)(=O)c1ccc(C2(C(=O)NCc3ccc(Cl)cc3)CCC2)cc1 [Example 76, 1-[4-((E)-2-Cyano-ethenesulfonyl)-phenyl]-cyclobutanecarboxylic acid 4-chloro-benzylamide] | > 85 | 50 to 85 | –
9 | CN(Cc1ccccc1)C(=O)C(C)(C)c1ccc(S(=O)(=O)/C=C/C#N)cc1 [Example 22, N-Benzyl-2-[4-((E)-2-cyano-ethenesulfonyl)-phenyl]-N-methyl-isobutyramide] | > 85 | > 85 | 50 to 85
10 | N#C/C=C/S(=O)(=O)c1ccc(C2(C(=O)NC3CCCCC3)CCC2)cc1 [Example 77, 1-[4-((E)-2-Cyano-ethenesulfonyl)-phenyl]-cyclobutanecarboxylic acid cyclohexylamide] | > 85 | 50 to 85 | –
11 | Cc1ccc(O)c(NC(=O)COc2ccc(S(=O)(=O)/C=C/C#N)cc2C(C)(C)C)c1 [Example 79, 2-[2-tert-Butyl-4-((E)-2-cyano-ethenesulfonyl)-phenoxy]-N-(2-hydroxy-5-methyl-phenyl)-acetamide] | > 85 | > 85 | –
12 | CC(C)(C)OC(=O)NCCOCCOCCNC(=O)C(C)(C)c1ccc(S(=O)(=O)/C=C/C#N)cc1 [Example 34, {2-[2-(2-{2-[4-((E)-2-Cyano-ethenesulfonyl)-phenyl]-2-methyl-propionylamino}-ethoxy)-ethoxy]-ethyl}-carbamic acid tert-butyl ester] | – | < 10 | –
13 | C[C@H](NC(=O)C(C)(C)c1ccc(S(=O)(=O)/C=C/C#N)cc1)c1ccccc1 [Example 16, 2-[4-((E)-2-Cyano-ethenesulfonyl)-phenyl]-N—((S)-1-phenyl-ethyl)-isobutyramide] | > 85 | 50 to 85 | 50 to 85
14 | CC(C)(C(=O)NC1CCCCC1)c1cccc(S(=O)(=O)/C=C/C#N)c1 [Example 35, 2-[3-((E)-2-Cyano-ethenesulfonyl)-phenyl]-N-cyclohexyl-isobutyramide] | – | 50 to 85 | –
15 | C#CCNC(=O)C(C)(C)c1ccc(S(=O)(=O)/C=C/C#N)cc1 [Example 19, 2-[4-((E)-2-Cyano-ethenesulfonyl)-phenyl]-N-prop-2-ynyl-isobutyramide] | 10 to 50 | 10 to 50 | 10 to 50
16 | CC(C)(C(=O)NCc1ccc(-n2cccn2)cc1)c1ccc(S(=O)(=O)/C=C/C#N)cc1 [Example 21, 2-[4-((E)-2-Cyano-ethenesulfonyl)-phenyl]-N-(4-pyrazol-1-yl-benzyl)-isobutyramide] | 50 to 85 | 50 to 85 | 50 to 85
17 | Cc1ccc2oc(COc3ccc(S(=O)(=O)/C=C/C#N)cc3C(C)(C)C)nc2c1 [Example 81, (E)-3-[3-tert-Butyl-4-(5-methyl-benzoxazol-2-ylmethoxy)-benzenesulfonyl]-acrylonitrile] | > 85 | 50 to 85 | –
18 | COc1cccc(NC(=O)C(C)(C)c2cccc(S(=O)(=O)/C=C/C#N)c2)c1 [Example 36, 2-[3-((E)-2-Cyano-ethenesulfonyl)-phenyl]-N-(3-methoxy-phenyl)-isobutyramide] | – | 50 to 85 | –
19 | COc1cccc(NC(=O)C(C)(C)c2ccc(S(=O)(=O)/C=C/C#N)cc2)c1 [Example 25, 2-[4-((E)-2-Cyano-ethenesulfonyl)-phenyl]-N-(3-methoxy-phenyl)-isobutyramide] | > 85 | 50 to 85 | 50 to 85
20 | CC(C)(C(=O)NCc1ccc(N)cc1)c1ccc(S(=O)(=O)/C=C/C#N)cc1 [Example 38, N-(4-Amino-benzyl)-2-[4-((E)-2-cyano-ethenesulfonyl)-phenyl]-isobutyramide] | – | 10 to 50 | –
21 | C[C@@H](NC(=O)C(C)(C)c1ccc(S(=O)(=O)/C=C/C#N)cc1)c1ccccc1 [Example 17, 2-[4-((E)-2-Cyano-ethenesulfonyl)-phenyl]-N—((R)-1-phenyl-ethyl)-isobutyramide] | > 85 | 50 to 85 | 50 to 85
22 | N#C/C=C/S(=O)(=O)c1ccc(C2(C(=O)NCc3ccc(Cl)cc3)CCOCC2)cc1 [Example 85, 4-[4-((E)-2-Cyano-ethenesulfonyl)-phenyl]-tetrahydro-pyran-4-carboxylic acid 4-chloro-benzylamide] | 50 to 85 | 50 to 85 | –
23 | N#C/C=C/S(=O)(=O)c1ccc(C2(C(=O)O)CCOCC2)cc1 [Example 82, 4-[4-((E)-2-Cyano-ethenesulfonyl)-phenyl]-tetrahydro-pyran-4-carboxylic acid] | < 10 | < 10 | –
24 | N#C/C=C/S(=O)(=O)c1ccc(C2(C(=O)NC3CCCCC3)CCOCC2)cc1 [Example 83, 4-[4-((E)-2-Cyano-ethenesulfonyl)-phenyl]-tetrahydro-pyran-4-carboxylic acid cyclohexylamide] | < 10 | 10 to 50 | –
25 | CC(C)(c1ccc(S(=O)(=O)/C=C/C#N)cc1)c1nc2ccccc2[nH]1 [Example 49, (E)-3-{4-[1-(1H-Benzimidazol-2-yl)-1-methyl-ethyl]-benzenesulfonyl}-acrylonitrile] | < 10 | < 10 | < 10
26 | CC(C)(C(=O)NCCc1ccccc1)c1ccc(S(=O)(=O)/C=C/C#N)cc1 [Example 24, 2-[4-((E)-2-Cyano-ethenesulfonyl)-phenyl]-N-phenethyl-isobutyramide] | > 85 | 50 to 85 | 50 to 85
27 | CC(C)(c1ccc(S(=O)(=O)/C=C/C#N)cc1)c1nnc(Nc2ccccc2)o1 [Example 47, (E)-3-{4-[1-Methyl-1-(5-phenylamino-[1,3,4]oxadiazol-2-yl)-ethyl]-benzenesulfonyl}-acrylonitrile] | 50 to 85 | 50 to 85 | 10 to 50
28 | CC(C)(C(=O)NCc1cccc(F)c1)c1ccc(S(=O)(=O)/C=C/C#N)cc1 [Example 39, 2-[4-((E)-2-Cyano-ethenesulfonyl)-phenyl]-N-(3-fluoro-benzyl)-isobutyramide] | – | 10 to 50 | –
29 | CCNc1nnc(C(C)(C)c2ccc(S(=O)(=O)/C=C/C#N)cc2)o1 [Example 48, (E)-3-{4-[1-(5-Ethylamino-[1,3,4]oxadiazol-2-yl)-1-methyl-ethyl]-benzenesulfonyl}-acrylonitrile] | 10 to 50 | < 10 | < 10
